The test system of one data set is TNF-α production. Description: In vitro studies: inhibition of TNF-α production following LPS-stimulation of human PBMC and human whole blood. Type of data set: cell-based. The following applies: comparator thalidomide. How it is done: In a specific embodiment, the pharmacological properties of 3-(3,4-dimethoxy-phenyl)-3-(1-oxo-1,3-dihydro-isoindol-2-yl)-propionamide are characterized in in vitro studies. Studies examine the effects of the compound on the production of various cytokines. Inhibition of TNF-α production following LPS-stimulation of human PBMC and human whole blood by the compound is investigated in vitro. The IC50's of the compound for inhibiting production of TNF-α are measured. […] The pharmacological effects of 3-(3,4-dimethoxy-phenyl)-3-(1-oxo-1,3-dihydro-isoindol-2-yl)-propionamide may derive from its action as an inhibitor of the generation of inflammatory cytokines.

Data set [1] is described as follows: Clinical studies in unresectable or relapsed mesothelioma patients. Particulars: 400 mg as a continuous oral daily dose; mesothelioma patients not responding to conventional therapy. The data set is classed as in vivo, human. As for the experimental part: Clinical trials with the administration of a PDE4 modulator in an amount of from about 1 mg to about 1,000 mg, from about 1 mg to about 500 mg, or from about 1 mg to about 250 mg per day are conducted in patients with asbestosis, malignant mesothelioma, or malignant pleural effusion mesothelioma syndrome. In a specific embodiment, patients receive about 1 mg to about 1000 mg/day of 3-(3,4-dimethoxy-phenyl)-3-(1-oxo-1,3-dihydro-isoindol-2-yl)-propionamide alone or in combination with vinorelbine. Patients who experience clinical benefit are permitted to continue on treatment.
Other clinical studies are performed using 3-(3,4-dimethoxy-phenyl)-3-(1-oxo-1,3-dihydro-isoindol-2-yl)-propionamide in unresectable or relapsed mesothelioma patients that have not responded to conventional therapy. In one embodiment, 3-(3,4-dimethoxy-phenyl)-3-(1-oxo-1,3-dihydro-isoindol-2-yl)-propionamide is administered in an amount of about 1 mg to about 1,000 mg/day to the patients. Treatment with 400 mg as a continuous oral daily dose is well-tolerated.

In the case of `COc1ccc(C(CC(N)=O)N2Cc3ccccc3C2=O)cc1OC` (centres unmarked) [3-(3,4-Dimethoxy-phenyl)-3-(1-oxo-1,3-dihydro-isoindol-2-yl)-propionamide], the “pharmacological activity profile, potency relative to thalidomide” value in the data set with TNF-α production is reported as “five to fifty times more potent than thalidomide”. Also, the tolerability entry in data set [1] was “well-tolerated”.

The record behind these values is patent US20050142104A1, “Methods of using and compositions comprising PDE4 modulators for the treatment and management of asbestos-related diseases and disorders” (priority 2003, published 2005).
